Experimental findings from patent US8765944B2, “Compounds for the treatment of hepatitis C” (priority 2010, dated 2014) are described below.

For the experiment, the system named is HCV pseudoparticles. As to the kind of experiment: HCV pseudoparticle infection assay (luciferase reporter, Huh7 cells). Format: cell-based, HCV (genotype 1b E1 and E2 envelope). Conditions: Hepatitis C virus, genotype 1b, Huh-7, 48 h, HCV pseudoparticles (genotype 1b), luciferase activity 2 days after infection. In general terms: A reporter such as luciferase makes a cellular process visible.

On to `O=C(NS(=O)(=O)CCNC(=O)C1CC1)c1ccc(Nc2nc(NC3(c4ccc(Cl)cc4)CC3)nc(OCC(F)(F)F)n2)cc1` [Example 1039], for which the EC50 – broadly, the concentration giving half of the maximal effect – (class) is 0.5 to 100 nM.

Turning to `O=C(CCNC(=O)c1ccc(Nc2nc(NC3(c4ccc(Cl)cc4)CC3)nc(OCC(F)(F)F)n2)cc1)NS(=O)(=O)C1CC1` [Example 2021], the EC50 (class) fell in the range of 0.5 to 100 nM.

Consider `O=C(NS(=O)(=O)C1CCCC1)c1ccc(Nc2nc(NC3(c4ccc(Cl)cc4)CC3)nc(OCC(F)(F)F)n2)cc1` [Example 8017], for which the EC50 (class) was 0.5 to 100 nM.

With `CS(=O)(=O)NC(=O)C1(CNC(=O)c2ccc(Nc3nc(NC4(c5ccc(Cl)cc5)CC4)nc(OCC(F)(F)F)n3)cc2)CC1` [Example 2071], the EC50 (class) is 0.5 to 100 nM.

Compound `O=C(CCCNC(=O)c1ccc(Nc2nc(NC3(c4ccc(Cl)cc4)CC3)nc(OCC(F)(F)F)n2)cc1)N[C@]1(C(=O)NS(=O)(=O)C2CC2)C[C@H]1C(F)F` [Example 2038] yielded an EC50 (class) of 0.5 to 100 nM.

For the compound `Cc1ccccc1S(=O)(=O)NC(=O)c1ccc(Nc2nc(NC3(c4ccc(Cl)cc4)CC3)nc(OCC(F)(F)F)n2)cc1` [Example 8012], the EC50 (class) fell in the range of 0.5 to 100 nM.

Under “class”, `Cc1cccc(S(=O)(=O)N2CCN(c3nc(Nc4ccc(C(=O)NS(=O)(=O)C5(CN(C)C)CC5)cc4)nc(OCC(F)(F)F)n3)CC2)c1` [Example 8032] gave an EC50 of 1000 to 5000 nM.

Consider `CC(=O)NCCS(=O)(=O)NC(=O)c1ccc(Nc2nc(NC3(c4ccc(Cl)cc4)CC3)nc(OCC(F)(F)F)n2)cc1` [Example 1036], for which, where the note is “class”, the EC50 was in the range of 0.5 to 100 nM.

`C=C[C@@H]1C[C@]1(NC(=O)C1(CNC(=O)c2ccc(Nc3nc(NC4(c5ccc(Cl)cc5)CC4)nc(OCC(F)(F)F)n3)cc2)CC1)C(=O)NS(=O)(=O)C1CC1` [Example 2065] came in with an EC50 (class) of 0.5 to 100 nM.

Regarding `CC(C)(C)OC(=O)NCCS(=O)(=O)NC(=O)c1ccc(Nc2nc(NC3(c4ccc(Cl)cn4)CC3)nc(OCC(F)(F)F)n2)cc1` [Example 8042], where the note is “class”, the EC50 was 0.5 to 100 nM.

Under “class”, `C=C[C@@H]1C[C@]1(NC(=O)C(C)(C)CNC(=O)c1ccc(Nc2nc(NC3(c4ccc(Cl)cc4)CC3)nc(OCC(F)(F)F)n2)cc1)C(=O)NS(=O)(=O)C1CCC1` [Example 2083] came in with an EC50 of 0.5 to 100 nM.

`CCS(=O)(=O)NC(=O)C(C)(C)CNC(=O)c1ccc(Nc2nc(NC3(c4ccc(Cl)cc4)CC3)nc(OCC(F)(F)F)n2)cc1` [Example 2087]: the EC50 (class) fell in the range of 0.5 to 100 nM.

For the compound `C[C@H](NC(=O)CCCNC(=O)c1ccc(Nc2nc(NC3(c4ccc(Cl)cc4)CC3)nc(OCC(F)(F)F)n2)cc1)C(=O)NS(=O)(=O)C1CCC1` [Example 2058], for the setting “class”, the EC50 lay within 0.5 to 100 nM.

In turn, `NC(=O)c1ccc(Nc2nc(NC3(C(=O)NS(=O)(=O)C4CC4)CC3)nc(OCC(F)(F)F)n2)cc1` [Example 8002] returned an EC50 (class) of 1000 to 5000 nM.

As to `CN(C)S(=O)(=O)NC(=O)[C@@]1(NC(=O)CCCNC(=O)c2ccc(Nc3nc(NC4(c5ccc(Cl)cc5)CC4)nc(OCC(F)(F)F)n3)cc2)C[C@H]1C1CC1` [Example 2043], the EC50 (class) was 0.5 to 100 nM.

In turn, `CS(=O)(=O)NC(=O)CCNC(=O)CCCNC(=O)c1ccc(Nc2nc(NC3(c4ccc(Cl)cc4)CC3)nc(OCC(F)(F)F)n2)cc1` [Example 2059] registered an EC50 (class) of 0.5 to 100 nM.

As to `O=C(NCCS(=O)(=O)NC(=O)C1CC1)c1ccc(Nc2nc(NC3(c4ccc(Cl)cc4)CC3)nc(OCC(F)(F)F)n2)cc1` [Example 4002], for the setting “class”, the EC50 is 0.5 to 100 nM.

Regarding `CC(C)S(=O)(=O)NC(=O)c1ccc(Nc2nc(NC3(c4ccc(Cl)cc4)CC3)nc(OCC(F)(F)F)n2)cc1` [Example 1005], under “class”, the EC50 lay in the range of 0.5 to 100 nM.

With `CS(=O)(=O)NC(=O)[C@@]1(NC(=O)CCCNC(=O)c2ccc(Nc3nc(NC4(c5ccc(Cl)cc5)CC4)nc(OCC(F)(F)F)n3)cc2)C[C@H]1C1CC1(F)F` (stereo partly drawn) [Example 2046], the half-maximal effective concentration (EC50) (class) fell in the range of 0.5 to 100 nM.

In turn, `CC(C)S(=O)(=O)NC(=O)CCCNC(=O)c1ccc(Nc2nc(NC3(c4ccc(Cl)cc4)CC3)nc(OCC(F)(F)F)n2)cc1` [Example 2023] yielded an EC50 (class) of 0.5 to 100 nM.

With `C=CS(=O)(=O)NC(=O)c1ccc(Nc2nc(NC3(c4ccc(Cl)cc4)CC3)nc(OCC(F)(F)F)n2)cc1` [Example 1004], the EC50 was 5.3 nM. Also, the EC50 (class) lay within 0.5 to 100 nM.

Where the note is “class”, `O=C(NS(=O)(=O)c1ccc(Nc2nc(NC3(c4ccc(Cl)cc4)CC3)nc(OCC(F)(F)F)n2)cc1)c1ccccc1` [Example 8005] yielded an EC50 of 1000 to 5000 nM.

`C=CS(=O)(=O)NC(=O)CCNC(=O)c1ccc(Nc2nc(NC3(c4ccc(Cl)cc4)CC3)nc(OCC(F)(F)F)n2)cc1` [Example 2016] gave an EC50 (class) of 0.5 to 100 nM.

In turn, `O=C(Nc1cccnc1)OCC1(S(=O)(=O)NC(=O)c2ccc(Nc3nc(NC4(c5ccc(Cl)cc5)CC4)nc(OCC(F)(F)F)n3)cc2)CC1` [Example 1028] displayed a concentration for a half-maximal effect (EC50) of 60 nM. The compound further showed an EC50 (class) of 0.5 to 100 nM.

The compound `CC(C)NCC1(C(=O)NS(=O)(=O)c2ccc(Nc3nc(NC4(c5ccc(Cl)cc5)CC4)nc(OCC(F)(F)F)n3)cc2)CC1` [Example 3005] gave a half-maximal effective concentration (EC50) (class) of 1000 to 5000 nM.

In the case of `CN1CCN(CC2(S(=O)(=O)NC(=O)c3ccc(Nc4nc(NC5(c6ccc(Cl)cc6)CC5)nc(OCC(F)(F)F)n4)cc3)CC2)CC1` [Example 1020], the EC50 (class) fell in the range of 0.5 to 100 nM.

For the compound `C=C[C@@H]1C[C@]1(NC(=O)C1(CNC(=O)c2ccc(Nc3nc(NC4(c5ccc(Cl)cc5)CC4)nc(OCC(F)(F)F)n3)cc2)CC1)C(=O)NS(=O)(=O)C1CCC1` [Example 2069], for the setting “class”, the EC50 lay within 0.5 to 100 nM.

Where the note is “class”, `CC(C)(C)NC(=O)NCCS(=O)(=O)NC(=O)c1ccc(Nc2nc(NC3(c4ccc(Cl)cc4)CC3)nc(OCC(F)(F)F)n2)cc1` [Example 1049] registered an EC50 of 0.5 to 100 nM.

In turn, `CN(C)CC1(S(=O)(=O)NC(=O)c2ccc(Nc3nc(OCC(F)(F)F)nc(N4CCN(S(=O)(=O)c5ccccc5)CC4)n3)cc2)CC1` [Example 8031] showed an EC50 (class) of 1000 to 5000 nM.

Compound `O=C(NS(=O)(=O)C1(CN2CCCC2)CC1)c1ccc(Nc2nc(NC3(c4ccc(Cl)cc4)CC3)nc(OCC(F)(F)F)n2)cc1` [Example 1011] came in with an EC50 of 0.48 nM. Also, under “class”, the EC50 fell in the range of 0.5 to 100 nM.

`CN(C)CCS(=O)(=O)NC(=O)c1ccc(Nc2nc(NC3(c4ccc(Cl)cc4)CC3)nc(OCC(F)(F)F)n2)cc1` [Example 1031] gave an EC50 (class) of 0.5 to 100 nM.

`O=C(CCCNC(=O)c1ccc(Nc2nc(NC3(c4ccc(Cl)cc4)CC3)nc(OCC(F)(F)F)n2)cc1)N[C@]1(C(=O)NS(=O)(=O)C2CC2)C[C@H]1C1CC1(F)F` (stereo partly drawn) [Example 2037] showed an EC50 (class) of 0.5 to 100 nM.

`C=C[C@@H]1C[C@]1(NC(=O)CCCCNC(=O)c1ccc(Nc2nc(NC3(c4ccc(Cl)cc4)CC3)nc(OCC(F)(F)F)n2)cc1)C(=O)NS(=O)(=O)C1CC1` [Example 2031] returned an EC50 (class) of 0.5 to 100 nM.

On to `CC(C)S(=O)(=O)NC(=O)CCCCNC(=O)c1ccc(Nc2nc(NC3(c4ccc(Cl)cc4)CC3)nc(OCC(F)(F)F)n2)cc1` [Example 2013], for which the EC50 (class) lay within 0.5 to 100 nM.

On to `O=C(NS(=O)(=O)C1(CN2CCC2)CC1)c1ccc(Nc2nc(NC3(c4ccc(Cl)cc4)CC3)nc(OCC(F)(F)F)n2)cc1` [Example 1013], for which, where the note is “class”, the EC50 lay within 0.5 to 100 nM.

With `CCS(=O)(=O)NC(=O)c1ccc(Nc2nc(NC3(c4ccc(Cl)cc4)CC3)nc(OCC(F)(F)F)n2)cc1` [Example 1003], for the setting “class”, the EC50 fell in the range of 0.5 to 100 nM.

The compound `C=CS(=O)(=O)NC(=O)[C@@]1(NC(=O)CCCNC(=O)c2ccc(Nc3nc(NC4(c5ccc(Cl)cc5)CC4)nc(OCC(F)(F)F)n3)cc2)C[C@H]1C1CC1` [Example 2040] yielded an EC50 (class) of 0.5 to 100 nM.

Regarding `CC(C)(C)OC(=O)N1CCC(C(=O)NS(=O)(=O)CCNC(=O)c2ccc(Nc3nc(NC4(c5ccc(Cl)cc5)CC4)nc(OCC(F)(F)F)n3)cc2)CC1` [Example 4005], the EC50 (class) lay within 0.5 to 100 nM.

Take `O=C(CCCNC(=O)c1ccc(Nc2nc(NC3(c4ccc(Cl)cc4)CC3)nc(OCC(F)(F)F)n2)cc1)NCCC(=O)NS(=O)(=O)C1CCC1` [Example 2063]: a half-maximal response (EC50) required 37.9 nM. Under “class”, the EC50 was in the range of 0.5 to 100 nM.

For `CC(C)(C)OC(=O)N1CCC(C(=O)NCCS(=O)(=O)NC(=O)c2ccc(Nc3nc(NC4(c5ccc(Cl)cc5)CC4)nc(OCC(F)(F)F)n3)cc2)CC1` [Example 1042], where the note is “class”, the EC50 lay in the range of 0.5 to 100 nM.

The compound `Cn1cnc(C[C@H](NC(=O)c2ccc(Nc3nc(NC4(c5ccc(Cl)cc5)CC4)nc(OCC(F)(F)F)n3)cc2)C(=O)N[C@]2(C(=O)NS(=O)(=O)C3CCC3)C[C@H]2C2CC2)c1` [Example 8020] yielded an EC50 (class) of 0.5 to 100 nM.

In turn, `NC(=O)c1ccc(Nc2nc(N[C@]3(C(=O)NS(=O)(=O)C4CC4)C[C@H]3C3CC3)nc(OCC(F)(F)F)n2)cc1` [Example 8001] registered an EC50 (class) of 1000 to 5000 nM.

As to `O=C(CC(F)(F)F)NCCS(=O)(=O)NC(=O)c1ccc(Nc2nc(NC3(c4ccc(Cl)cc4)CC3)nc(OCC(F)(F)F)n2)cc1` [Example 1040], the EC50 (class) was 0.5 to 100 nM.

In turn, `O=C(NS(=O)(=O)c1ccc(Nc2nc(NC3(c4ccc(Cl)cc4)CC3)nc(OCC(F)(F)F)n2)cc1)C1CC1` [Example 8006] gave an EC50 of 2990 nM. The compound further came in with an EC50 (class) of 1000 to 5000 nM.

`C=C[C@@H]1C[C@]1(NC(=O)C1(CNC(=O)c2ccc(Nc3nc(NC4(c5ccc(Cl)cc5)CC4)nc(OCC(F)(F)F)n3)cc2)CC1)C(=O)NS(=O)(=O)C(C)(C)C` [Example 2068] had an EC50 (class) of 0.5 to 100 nM.

In turn, `CC(C)(CNC(=O)c1ccc(Nc2nc(NC3(c4ccc(Cl)cc4)CC3)nc(OCC(F)(F)F)n2)cc1)C(=O)NS(=O)(=O)C1CC1` [Example 2084] registered an EC50 of 6 nM. The EC50 (class) lay in the range of 0.5 to 100 nM.

`CCCC1(S(=O)(=O)NC(=O)C2(CNC(=O)c3ccc(Nc4nc(NC5(c6ccc(Cl)cc6)CC5)nc(OCC(F)(F)F)n4)cc3)CC2)CC1` [Example 2077]: the EC50 (class) was in the range of 0.5 to 100 nM.

`O=C(NS(=O)(=O)C1(CN2CCN(c3ccncc3)CC2)CC1)c1ccc(Nc2nc(NC3(c4ccc(Cl)cc4)CC3)nc(OCC(F)(F)F)n2)cc1` [Example 1019]: under “class”, the EC50 is 0.5 to 100 nM.

`CC(C)OC(=O)NCCS(=O)(=O)NC(=O)c1ccc(Nc2nc(NC3(c4ccc(Cl)cc4)CC3)nc(OCC(F)(F)F)n2)cc1` [Example 1045] showed an EC50 (class) of 0.5 to 100 nM.

In turn, `CC(C)NC(=O)NCCS(=O)(=O)NC(=O)c1ccc(Nc2nc(NC3(c4ccc(Cl)cc4)CC3)nc(OCC(F)(F)F)n2)cc1` [Example 1048] had an EC50 (class) of 0.5 to 100 nM.

Where the note is “class”, `O=C(NCCS(=O)(=O)NC(=O)c1ccc(Nc2nc(NC3(c4ccc(Cl)cc4)CC3)nc(OCC(F)(F)F)n2)cc1)Nc1cccnc1` [Example 1050] registered an EC50 of 0.5 to 100 nM.
